IC50 data for 17 molecules are collected here from US20240383915A1, “OXAZEPINE COMPOUNDS AND USES THEREOF IN THE TREATMENT OF CANCER” (Genentech, Inc., priority 2021, published 2024).

Experiment [1] has as its target KRas(G12V) (Homo sapiens (Human), UniProt P01116, G12V). Nature of the experiment: KRas(G12V) GDP HTRF (BODIPY-GDP exchange TR-FRET). Type of experiment: biochemical. (TR-FRET usually uses a lanthanide donor and a delayed reading to cut background.)
For experiment [2], the target named is KRas (Homo sapiens (Human), UniProt P01116). The experiment can be described thus: KRas GDP HTRF (BODIPY-GDP exchange TR-FRET). The format is biochemical. A digest of the protocol: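 Inhibition of SOS1-mediated exchange of BODIPY-GDP on KRAS G12D, started with 3 nM recombinant human SOS1 and 300 nM BODIPY-GDP and read after 60 min. TR-FRET excitation 337 nm, ratio 520/490 nm ×10,000. IC50 from 4-parameter Hill fit of normalized data.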
Sequence of KRas (P01116-2 other isoform, or with tags, fused parts or gaps): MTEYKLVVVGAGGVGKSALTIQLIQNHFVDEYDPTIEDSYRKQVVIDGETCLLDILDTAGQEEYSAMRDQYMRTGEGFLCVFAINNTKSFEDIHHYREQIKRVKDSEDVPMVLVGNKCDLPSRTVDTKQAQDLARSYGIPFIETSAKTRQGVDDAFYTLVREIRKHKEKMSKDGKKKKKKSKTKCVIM

Experiment [3] has as its system SW480 cells. The experiment can be described thus: SW480 proliferation assay. Type of experiment: cell-based. The settings on record: Homo sapiens, SW480, SW480; read-out: SW480 Prolif IC50 (G12V).
Experiment [4] concerns PC-9 cells. The experiment can be described thus: PC9 proliferation assay. Type of experiment: cell-based, human. The following applies: Homo sapiens, PC-9, PC9; read-out: PC9 Prolif IC50 (G12V).

Sequence of KRas(G12V) (P01116-2 other isoform, or with tags, fused parts or gaps G12V): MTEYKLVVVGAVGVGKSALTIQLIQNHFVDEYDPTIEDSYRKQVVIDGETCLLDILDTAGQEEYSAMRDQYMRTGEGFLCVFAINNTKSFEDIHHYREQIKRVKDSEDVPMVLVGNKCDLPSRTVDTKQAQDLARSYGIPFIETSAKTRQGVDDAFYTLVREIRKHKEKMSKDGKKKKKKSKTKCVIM

One may read the IC50 as the point on the concentration scale where inhibition reaches its midpoint. Turning to `Cc1cc(N)nc(-c2c(Cl)c3c4c(nc(OC[C@H]5CC[C@@H]6CO[C@H](C)CN56)nc4c2F)N([C@H](C)c2cccnc2N)CCO3)c1C(F)(F)F` (atropisomer, axis not shown; (aR)) [Example 93d, 6-((R)-4-((R)-1-(2-aminopyridin-3-yl)ethyl)-8-chloro-10-fluoro-2-(((3R,6R,8aR)-3-methylhexahydro-1H-pyrrolo[2,1-c][1,4]oxazin-6-yl)methoxy)-5,6-dihydro-4H-[1,4]oxazepino[5,6,7-de]quinazolin-9-yl)-4-methyl-5-(trifluoromethyl)pyridin-2-amine], the IC50 in experiment [1] was found to be 0.07 nM; in experiment [2], 0.0849 nM; in experiment [3], 1.1 nM.
In the same order, the values of `Cc1cc(N)nc(-c2c(Cl)c3c4c(nc(OC[C@@H]5CC[C@H]6COCCN65)nc4c2F)N([C@H](C)c2nccnc2N)CCO3)c1C(F)(F)F` (atropisomer, axis not shown; (aS)) [Example 104a, 3-((R)-1-((R)-9-(6-amino-4-methyl-3-(trifluoromethyl)pyridin-2-yl)-8-chloro-10-fluoro-2-(((6S,8aS)-hexahydro-1H-pyrrolo[2,1-c][1,4]oxazin-6-yl)methoxy)-5,6-dihydro-4H-[1,4]oxazepino[5,6,7-de]quinazolin-4-yl)ethyl)pyrazin-2-amine] are 0.15 nM, 0.447 nM and 12 nM.
Consider `Cc1cc(N)nc(-c2cc3ncnc4c3c(c2Cl)OCCN4C)c1C(F)(F)F` [Example 24, 6-(8-chloro-4-methyl-5,6-dihydro-4H-[1,4]oxazepino[5,6,7-de]quinazolin-9-yl)-4-methyl-5-(trifluoromethyl)pyridin-2-amine], for which the IC50 in experiment [1] came to 4400 nM; in experiment [2], 30000 nM; in experiment [4], 20000 nM.
For `Cc1cc(N)nc(-c2cc3nc(OCC4(C)CS(=O)(=O)C4)nc4c3c(c2Cl)OCCN4Cc2cccnc2N)c1C(F)(F)F` [Example 55, 3-(((9-(6-amino-4-methyl-3-(trifluoromethyl)pyridin-2-yl)-4-((2-aminopyridin-3-yl)methyl)-8-chloro-5,6-dihydro-4H-[1,4]oxazepino[5,6,7-de]quinazolin-2-yl)oxy)methyl)-3-methylthietane 1,1-dioxide], the IC50 in experiment [1] stood at 19 nM; in experiment [2], 130 nM.
For `Cc1cc(N)nc(-c2cc3ncnc4c3c(c2Cl)OCCN4Cc2scnc2N)c1C(F)(F)F` [Example 25, 5-((9-(6-amino-4-methyl-3-(trifluoromethyl)pyridin-2-yl)-8-chloro-5,6-dihydro-4H-[1,4]oxazepino[5,6,7-de]quinazolin-4-yl)methyl)thiazol-4-amine], the figures for the IC50 in experiment [1] and in experiment [2] were 510 nM and 2000 nM, respectively.
The like results for `Cc1cc(N)nc(-c2c(Cl)c3c4c(nc(OC[C@H](C)N5CCOCC5)nc4c2F)N([C@H](C)c2cccnc2N)CCO3)c1C(F)(F)F` (atropisomer, axis not shown) [Example 95a, 6-((R)-4-((R)-1-(2-aminopyridin-3-yl)ethyl)-8-chloro-10-fluoro-2-((S)-2-morpholinopropoxy)-5,6-dihydro-4H-[1,4]oxazepino[5,6,7-de]quinazolin-9-yl)-4-methyl-5-(trifluoromethyl)pyridin-2-amine] were, in that order, 0.09 nM and 0.83 nM.
Regarding `CNc1cncc(CN2CCOc3c(Cl)c(-c4nc(N)cc(C)c4C(F)(F)F)cc4ncnc2c34)c1` [Example 6, 6-(8-chloro-4-((5-(methylamino)pyridin-3-yl)methyl)-5,6-dihydro-4H-[1,4]oxazepino[5,6,7-de]quinazolin-9-yl)-4-methyl-5-(trifluoromethyl)pyridin-2-amine], the IC50 came to 1300 nM in experiment [1] and 6300 nM in experiment [2].
In the same order, the values of `Cc1cc(N)nc(-c2c(Cl)c3c4c(nc(OC[C@H]5C[C@@H]6COCCN65)nc4c2F)N([C@H](C)c2cccnc2N)CCO3)c1C(F)(F)F` (atropisomer, axis not shown) [Example 99b, 6-((R)-2-(((6R,8R)-4-oxa-1-azabicyclo[4.2.0]octan-8-yl)methoxy)-4-((R)-1-(2-aminopyridin-3-yl)ethyl)-8-chloro-10-fluoro-5,6-dihydro-4H-[1,4]oxazepino[5,6,7-de]quinazolin-9-yl)-4-methyl-5-(trifluoromethyl)pyridin-2-amine] are 0.08 nM and 0.0748 nM.
For `Cc1cc(N)nc(-c2cc3ncnc4c3c(c2Cl)OCCN4Cc2c(C(F)F)ccnc2N)c1C(F)(F)F` [Example 57, 6-(4-((2-amino-4-(difluoromethyl)pyridin-3-yl)methyl)-8-chloro-5,6-dihydro-4H-[1,4]oxazepino[5,6,7-de]quinazolin-9-yl)-4-methyl-5-(trifluoromethyl)pyridin-2-amine], the results for the IC50 in experiment [1] and in experiment [2] were 270 nM and 2000 nM, respectively.
On to `Cc1c(F)c(N)cc(-c2c(Cl)c3c4c(nc(OC[C@@]56CCCN5C[C@H](F)C6)nc4c2F)N([C@H](C)c2cccnc2N)CCO3)c1C(F)(F)F` (atropisomer, axis not shown; (aS)) [Example 76a, 3-((R)-1-(9-((S)-5-amino-4-fluoro-3-methyl-2-(trifluoromethyl)phenyl)-8-chloro-10-fluoro-2-(((2R,7aS)-2-fluorotetrahydro-1H-pyrrolizin-7a(5H)-yl)methoxy)-5,6-dihydro-4H-[1,4]oxazepino[5,6,7-de]quinazolin-4-yl)ethyl)pyridin-2-amine], for which the IC50 came out at 0.09 nM in experiment [1], 0.102 nM in experiment [2] and 1.9 nM in experiment [3].
In the case of `Cc1cc(N)nc(-c2c(Cl)c3c4c(nc(OC[C@H]5CC[C@@H]6CO[C@@H](C)CN56)nc4c2F)N([C@H](C)c2cccnc2N)CCO3)c1C(F)(F)F` (atropisomer, axis not shown; (aR)) [Example 93b, 6-((R)-4-((R)-1-(2-aminopyridin-3-yl)ethyl)-8-chloro-10-fluoro-2-(((3S,6R,8aR)-3-methylhexahydro-1H-pyrrolo[2,1-c][1,4]oxazin-6-yl)methoxy)-5,6-dihydro-4H-[1,4]oxazepino[5,6,7-de]quinazolin-9-yl)-4-methyl-5-(trifluoromethyl)pyridin-2-amine], the IC50 in experiment [1] stood at 0.14 nM; in experiment [2], 0.35 nM.
Consider `CN1CCOc2c(Cl)c(-c3c(F)ccc4cnn(C)c34)cc3nc(OC[C@@]45CCCN4C[C@H](F)C5)nc1c23` [Example 8, 8-chloro-9-(6-fluoro-1-methyl-1H-indazol-7-yl)-2-(((2R,7aS)-2-fluorotetrahydro-1H-pyrrolizin-7a(5H)-yl)methoxy)-4-methyl-5,6-dihydro-4H-[1,4]oxazepino[5,6,7-de]quinazoline], for which the IC50 in experiment [1] is 810 nM; in experiment [2] it was 3900 nM.
In the same order, the values of `Cc1cc(N)nc(-c2c(Cl)c3c4c(nc(OCCN5C6CCC5CN(C)C6)nc4c2F)N([C@H](C)c2cccnc2N)CCO3)c1C(F)(F)F` [Example 94, 6-((9R)-4-((R)-1-(2-aminopyridin-3-yl)ethyl)-8-chloro-10-fluoro-2-(2-(3-methyl-3,8-diazabicyclo[3.2.1]octan-8-yl)ethoxy)-5,6-dihydro-4H-[1,4]oxazepino[5,6,7-de]quinazolin-9-yl)-4-methyl-5-(trifluoromethyl)pyridin-2-amine] are 0.07 nM and 0.175 nM.
In the same order, the values of `Cc1cc(N)nc(-c2cc3ncnc4c3c(c2Cl)OCCN4C(C)CO)c1C(F)(F)F` (centres unmarked) [Example 16, 2-(9-(6-amino-4-methyl-3-(trifluoromethyl)pyridin-2-yl)-8-chloro-5,6-dihydro-4H-[1,4]oxazepino[5,6,7-de]quinazolin-4-yl)propan-1-ol] are 6900 nM and 32000 nM.
Regarding `Cc1cc(N)nc(-c2c(Cl)c3c4c(nc(OC[C@@]56CCCN5C[C@H](F)C6)nc4c2F)N([C@H](C)c2cc(Cl)cnc2N)CCO3)c1C(F)(F)F` [Example 131, 6-(4-((R)-1-(2-amino-5-chloropyridin-3-yl)ethyl)-8-chloro-10-fluoro-2-(((2R,7aS)-2-fluorotetrahydro-1H-pyrrolizin-7a(5H)-yl)methoxy)-5,6-dihydro-4H-[1,4]oxazepino[5,6,7-de]quinazolin-9-yl)-4-methyl-5-(trifluoromethyl)pyridin-2-amine], the IC50 in experiment [1] amounted to 0.14 nM; in experiment [2] it was 0.253 nM.
The like results for `C[C@H](c1cccnc1N)N1CCOc2c(Cl)c(-c3cccc4sc(N)nc34)c(F)c3nc(OC[C@@]45CCCN4C[C@H](F)C5)nc1c23` (atropisomer, axis not shown; (aS)) [Example 100b, 4-((S)-4-((R)-1-(2-aminopyridin-3-yl)ethyl)-8-chloro-10-fluoro-2-(((2R,7aS)-2-fluorotetrahydro-1H-pyrrolizin-7a(5H)-yl)methoxy)-5,6-dihydro-4H-[1,4]oxazepino[5,6,7-de]quinazolin-9-yl)benzo[d]thiazol-2-amine] were, in that order, 0.73 nM and 0.353 nM.
With `Cc1cc(N)nc(-c2c(Cl)c3c4c(nc(OC[C@H]5COCCN5)nc4c2F)N([C@H](C)c2cccnc2N)CCO3)c1C(F)(F)F` (atropisomer, axis not shown) [Example 97, 6-((R)-4-((R)-1-(2-aminopyridin-3-yl)ethyl)-8-chloro-10-fluoro-2-(((R)-morpholin-3-yl)methoxy)-5,6-dihydro-4H-[1,4]oxazepino[5,6,7-de]quinazolin-9-yl)-4-methyl-5-(trifluoromethyl)pyridin-2-amine], the IC50 in experiment [1] came to 0.08 nM; in experiment [2], 0.359 nM.
